According to paper PMC10343752, “Anti-α-Glucosidase, SAR Analysis, and Mechanism Investigation of Indolo[1,2-b]isoquinoline Derivatives” (Molecules, 2023):
Blank lines part the entries; values can stand above or below the compound they belong to.

Key:
[1] = target: T1, α-glucosidase from Saccharomyces cerevisiae (Saccharomyces cerevisiae, UniProt P53341); assay: biochemical; type: biochemical; conditions: for IC50: α-glucosidase 0.1 U/mL, PNPG 0.25 mM, pH 6.8, 37 °C, read-out: α-Glucosidase inhibitory activity IC50
T1 construct: purchased Sigma-Aldrich
Protocol: (§1) α-Glucosidase from Saccharomyces cerevisiae (EC 3.2.1.20) was purchased from Sigma-Aldrich. p-Nitrophenyl-α-D-[…] (PNPG) was obtained from Abcam. Other reagents were commercially available.
After the addition of PNPG (0.25 mM), the change in absorbance was measured at 405 nm. […] All experiments were performed four times.

[2] = target: T2, α-glucosidase (Saccharomyces cerevisiae, UniProt P53341); assay: α-glucosidase inhibition kinetics (enzyme kinetics and Lineweaver-Burk substrate kinetics); type: biochemical; conditions: for inhibition type (substrate kinetics): Lineweaver-Burk plots; for Ki / Kis / Vmax: inhibition kinetics constant; for reversibility of inhibition (enzyme kinetics): plots of remaining enzyme activity versus enzyme concentration
T2 construct: purchased Sigma-Aldrich
Text: Compounds 9, 11, 13, 18, and 19 with different α-glucosidase inhibitory activity were selected as representative compounds to reveal the inhibition mechanism of indolo[1,2-b]isoquinoline derivatives (1–21) on α-glucosidase by the implementation of an inhibition kinetics study. […] For substrate kinetics (Figure 5b,d,f,h,j), the Lineweaver-Burk plots of remaining enzyme activity versus […] treated with compounds 9, 11, 13, 18, and 19 intersected at one point in the second quadrant, respectively. The inhibition kinetics study was an effective method by which to understand the inhibition mechanism of the inhibitor against the target protein. In a substrate kinetics study, different inhibition mechanisms of inhibitors manifested as different intersection positions of Lineweaver-Burk plots. […] Moreover, compounds 9, 11, 13, 18, and 19 bind with both free enzyme and enzyme-substrate complexes to inhibit α-glucosidase. The inhibition kinetics constants of compounds 9, 11, 13, 18, and 19 were obtained and are listed in Table 2, including Ki, Kis, Km, and Vmax values, which might be helpful to understand the inhibition mechanism.
as §1
The kinetics of enzyme inhibition for compounds 9, 11, 13, 18, and 19 were obtained by plotting the enzymatic reaction rate versus enzyme concentration with or without compounds 9, 11, 13, 18, and 19, and the kinetics of substrate inhibition were measured using Lineweaver Burk plots of the enzymatic reaction rate versus substrate concentration with or without compounds 9, 11, 13, 18, and 19 [37, 38, 39, 40].

[3] = target: T2, α-glucosidase; assay: 3D fluorescence spectra of α-glucosidase with compounds; type: binding; conditions: α-glucosidase 5 μM
Text: The 3D fluorescence spectra of α-glucosidase with compounds 9, 11, 13, 18, and 19 was investigated to analyze the effect of compounds on the structure of α-glucosidase, respectively. Two important characteristic peaks appeared in the 3D fluorescence spectra of α-glucosidase (Figure 6a,c,e,g,i), including Peak 1 ([…]), corresponding to the main chain structure of the polypeptide, and Peak 2 ([…]), corresponding to tyrosine and tryptophan residues. […] (Figure 6b,d,f,h,j). Previously, 3D fluorescence spectra have been used to determine protein conformation changes.
as §1
Compounds 9, 11, 13, 18, and 19 were added to α-glucosidase (5 μM) in 100 μL of PBS and incubated for 5 min, then the 3D fluorescence spectra of the mixture were recorded [32]^. The excitation and emission wavelengths were 200–500 nm and the slit width was 2.5 nm. All data were imported into Matlab for processing.

[4] = target: T2, α-glucosidase; assay: CD spectra, secondary structure contents of α-glucosidase; type: binding; conditions: for effect on CD band intensity of α-glucosidase: 190~280 nm
Text: CD spectra were also monitored to study the effect of compounds 9, 11, 13, 18, and 19 on the conformational changes of α-glucosidase. As shown in Figure 7a–e, α-glucosidase presented two negative CD bands in the region of 190~280 nm, which was owed to the electronic transitions of n→π* of α-helical bonds. […] While treatment of compounds 9, 13, 18, and 19 led to an increase of α-helix and a reduction of β-sheet, β-turn, and random coils, respectively (Table 3). CD spectra have been an important method by which to study protein structural changes and secondary structural content. Previous research has shown that the interaction of an inhibitor with α-glucosidase caused the partial folding and loosening of the α-glucosidase structure.
as §1
Compounds 9, 11, 13, 18, and 19 with different concentrations were added into α-glucosidase solution (31 μM) and incubated for 5 min, respectively, then the CD spectra of the mixture were recorded. CDNN was used to analyze the ratio of protein secondary conformations.

[5] = test system: hepatocytes LO2 cells; assay: In vitro cytotoxicity, MTT method; type: cell-based; conditions: 24 h, up to a concentration of 32 μM
Protocol: The in vitro cytotoxicity of compounds 9, 11, 13, 18, and 19 against hepatocytes LO2 cells was detected using the MTT method.
The in vitro cytotoxicity of compound 11 against hepatocytes LO2 cells was assayed using the MTT method. LO2 cells were cultured in DMEM containing 10% FBS, 100 IU/mL penicillin, and 100 IU/mL streptomycin at 37 °C under 5% CO2. An amount of 100 μL of LO2 cells was seeded into a 96-well plate (5000 per well) for 24 h, and was then treated with compounds 9, 11, 13, 18, and 19 for 24 h, respectively. Then, MTT solution was added into each well and incubated for 4 h. An amount of […] of DMSO was used to dissolve the obtained crystallization. Then, this absorbance was determined at 490 nm. Each sample was performed in triplicate.

[6] = molar ratio [α-Glu]:[Comp.] 1:1
[7] = molar ratio [α-Glu]:[Comp.] 1:2
[8] = molar ratio [α-Glu]:[Comp.] 1:3

T2 sequence (P53341 whole entry): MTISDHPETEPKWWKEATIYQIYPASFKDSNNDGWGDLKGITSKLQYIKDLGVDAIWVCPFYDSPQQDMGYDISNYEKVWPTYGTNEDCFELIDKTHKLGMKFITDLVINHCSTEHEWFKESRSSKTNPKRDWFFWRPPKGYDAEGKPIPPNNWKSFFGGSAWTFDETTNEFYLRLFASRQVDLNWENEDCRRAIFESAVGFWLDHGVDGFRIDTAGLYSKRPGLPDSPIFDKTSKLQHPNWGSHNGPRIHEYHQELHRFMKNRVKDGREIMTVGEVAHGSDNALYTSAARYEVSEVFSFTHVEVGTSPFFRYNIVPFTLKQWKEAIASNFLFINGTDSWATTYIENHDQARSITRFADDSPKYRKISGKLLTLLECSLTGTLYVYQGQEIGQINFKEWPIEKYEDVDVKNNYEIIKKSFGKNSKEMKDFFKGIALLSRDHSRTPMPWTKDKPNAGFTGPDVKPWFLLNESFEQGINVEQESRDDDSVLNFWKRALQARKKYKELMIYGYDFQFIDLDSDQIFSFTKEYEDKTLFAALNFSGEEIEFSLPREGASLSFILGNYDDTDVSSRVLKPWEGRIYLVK
T1 sequence (P53341 whole entry): as above

IC50 [1]: 23.46 ± 0.23 µM
SMILES: O=C1c2ccccc2-n2c1c(-c1ccccc1)c1ccccc1c2=O [Compound 1]

IC50 [1]: 17.4 ± 0.25 µM
SMILES: Cc1ccc(-c2c3n(c(=O)c4ccccc24)-c2ccccc2C3=O)cc1 [Compound 2]

IC50 [1]: 9.25 ± 0.14 µM
SMILES: Cc1cccc(-c2c3n(c(=O)c4ccccc24)-c2ccccc2C3=O)c1 [Compound 3]

IC50 [1]: 22.3 ± 0.63 µM
SMILES: Cc1ccccc1-c1c2n(c(=O)c3ccccc13)-c1ccccc1C2=O [Compound 4]

IC50 [1]: 16.1 ± 0.46 µM
SMILES: CCc1ccc(-c2c3n(c(=O)c4ccccc24)-c2ccccc2C3=O)cc1 [Compound 5]

IC50 [1]: 5.76 ± 0.26 µM
SMILES: CC(C)(C)c1ccc(-c2c3n(c(=O)c4ccccc24)-c2ccccc2C3=O)cc1 [Compound 6]

IC50 [1]: 14.7 ± 0.37 µM
SMILES: O=C1c2ccccc2-n2c1c(-c1ccc(Cl)cc1)c1ccccc1c2=O [Compound 7]

IC50 [1]: 15.1 ± 0.44 µM
SMILES: COc1ccc(-c2c3n(c(=O)c4ccccc24)-c2ccccc2C3=O)cc1 [Compound 8]

SMILES: CN(C)c1ccc(-c2c3n(c(=O)c4ccccc24)-c2ccccc2C3=O)cc1 [Compound 9]
IC50 [1]: 40.9 ± 0.69 µM
inhibition type (substrate kinetics) [2]: mixed-type inhibition
Ki [2]: 30.5 µM
Kis [2]: 96.19 µM
Vmax [2]: 0.12 µM/min/mg
reversibility of inhibition (enzyme kinetics) [2]: reversible
effect on fluorescence intensity of Peak 1 and Peak 2 of α-glucosidase [3]: decrease the fluorescence intensity
effect on CD band intensity of α-glucosidase [4]: decrease in CD band intensity
Rndm Coil [4, 6]: 35.10%
α-Helix [4, 6]: 10.80%
β-Sheet [4, 6]: 35.60%
β-Turn [4, 6]: 19.30%
Rndm Coil [4, 7]: 34.60%
α-Helix [4, 7]: 13.00%
β-Sheet [4, 7]: 31.90%
β-Turn [4, 7]: 19.30%
Rndm Coil [4, 8]: 33.40%
α-Helix [4, 8]: 13.10%
β-Sheet [4, 8]: 31.70%
β-Turn [4, 8]: 19.10%
effect on cell viability [5]: no significant effect on cell viability

IC50 [1]: 12.2 ± 0.46 µM
SMILES: O=C1c2ccccc2-n2c1c(-c1ccccc1Cl)c1ccccc1c2=O [Compound 10]

SMILES: O=C1c2ccccc2-n2c1c(-c1ccc3ccccc3c1)c1ccccc1c2=O [Compound 11]
anti-α-glucosidase activity, times stronger than acarbose [1]: ~ 186 times
IC50 [1]: 3.44 ± 0.36 µM
inhibition type (substrate kinetics) [2]: mixed-type inhibition
Ki [2]: 0.46 µM
Kis [2]: 14.57 µM
Vmax [2]: 0.06 µM/min/mg
reversibility of inhibition (enzyme kinetics) [2]: reversible
effect on fluorescence intensity of Peak 1 and Peak 2 of α-glucosidase [3]: decrease the fluorescence intensity
effect on CD band intensity of α-glucosidase [4]: concentration-dependent increase in the CD band intensity
Rndm Coil [4, 6]: 35.60%
α-Helix [4, 6]: 8.40%
β-Sheet [4, 6]: 34.30%
β-Turn [4, 6]: 20.00%
Rndm Coil [4, 7]: 35.60%
α-Helix [4, 7]: 8.20%
β-Sheet [4, 7]: 34.70%
β-Turn [4, 7]: 20.00%
Rndm Coil [4, 8]: 35.80%
α-Helix [4, 8]: 7.80%
β-Sheet [4, 8]: 35.20%
β-Turn [4, 8]: 20.10%
effect on cell viability [5]: no significant effect on cell viability

IC50 [1]: 32.8 ± 0.72 µM
SMILES: COC(=O)c1ccc(-c2c3n(c(=O)c4ccccc24)-c2ccccc2C3=O)cc1 [Compound 12]

SMILES: O=C1c2cc(Cl)ccc2-n2c1c(-c1ccccc1)c1ccccc1c2=O [Compound 13]
IC50 [1]: 6.35 ± 0.25 µM
inhibition type (substrate kinetics) [2]: mixed-type inhibition
Ki [2]: 3.62 µM
Kis [2]: 11.65 µM
Vmax [2]: 0.08 µM/min/mg
reversibility of inhibition (enzyme kinetics) [2]: reversible
effect on fluorescence intensity of Peak 1 and Peak 2 of α-glucosidase [3]: decrease the fluorescence intensity
effect on CD band intensity of α-glucosidase [4]: decrease in CD band intensity
Rndm Coil [4, 6]: 35.60%
α-Helix [4, 6]: 8.80%
β-Sheet [4, 6]: 40.60%
β-Turn [4, 6]: 19.30%
Rndm Coil [4, 7]: 35.40%
α-Helix [4, 7]: 9.10%
β-Sheet [4, 7]: 39.60%
β-Turn [4, 7]: 19.40%
Rndm Coil [4, 8]: 35.10%
α-Helix [4, 8]: 11.20%
β-Sheet [4, 8]: 34.60%
β-Turn [4, 8]: 19.60%
effect on cell viability [5]: no significant effect on cell viability

IC50 [1]: 17 ± 0.37 µM
SMILES: Cc1ccc2c(c1)-n1c(c(-c3ccccc3)c3ccccc3c1=O)C2=O [Compound 14]

IC50 [1]: 9.25 ± 0.41 µM
SMILES: O=C1c2ccc(Cl)cc2-n2c1c(-c1ccccc1)c1ccccc1c2=O [Compound 15]

IC50 [1]: 10.1 ± 0.36 µM
SMILES: O=C1c2cc(F)ccc2-n2c1c(-c1ccccc1)c1ccccc1c2=O [Compound 16]

IC50 [1]: 7.95 ± 0.43 µM
SMILES: Cc1ccc2c(=O)n3c(c(-c4ccccc4)c2c1)C(=O)c1ccccc1-3 [Compound 17]

SMILES: O=C1c2ccccc2-n2c1c(-c1ccccc1)c1ccc(F)cc1c2=O [Compound 18]
IC50 [1]: 7.97 ± 0.31 µM
inhibition type (substrate kinetics) [2]: mixed-type inhibition
Ki [2]: 4.62 µM
Kis [2]: 12.34 µM
Vmax [2]: 0.08 µM/min/mg
reversibility of inhibition (enzyme kinetics) [2]: reversible
effect on fluorescence intensity of Peak 1 and Peak 2 of α-glucosidase [3]: decrease the fluorescence intensity
effect on CD band intensity of α-glucosidase [4]: decrease in CD band intensity
Rndm Coil [4, 6]: 35.00%
α-Helix [4, 6]: 11.10%
β-Sheet [4, 6]: 35.30%
β-Turn [4, 6]: 19.40%
Rndm Coil [4, 7]: 35.00%
α-Helix [4, 7]: 11.20%
β-Sheet [4, 7]: 35.00%
β-Turn [4, 7]: 19.30%
Rndm Coil [4, 8]: 34.70%
α-Helix [4, 8]: 12.80%
β-Sheet [4, 8]: 35.00%
β-Turn [4, 8]: 19.30%
effect on cell viability [5]: no significant effect on cell viability

SMILES: Cc1ccc2c(c1)-n1c(c(-c3ccccc3)c3cc(C)ccc3c1=O)C2=O [Compound 19]
IC50 [1]: 41.2 ± 0.76 µM
inhibition type (substrate kinetics) [2]: mixed-type inhibition
Ki [2]: 8.38 µM
Kis [2]: 42.30 µM
Vmax [2]: 0.05 µM/min/mg
reversibility of inhibition (enzyme kinetics) [2]: reversible
effect on fluorescence intensity of Peak 1 and Peak 2 of α-glucosidase [3]: decrease the fluorescence intensity
effect on CD band intensity of α-glucosidase [4]: decrease in CD band intensity
Rndm Coil [4, 6]: 34.60%
α-Helix [4, 6]: 12.90%
β-Sheet [4, 6]: 31.80%
β-Turn [4, 6]: 19.40%
Rndm Coil [4, 7]: 34.70%
α-Helix [4, 7]: 11.50%
β-Sheet [4, 7]: 34.20%
β-Turn [4, 7]: 19.30%
Rndm Coil [4, 8]: 34.90%
α-Helix [4, 8]: 12.80%
β-Sheet [4, 8]: 34.40%
β-Turn [4, 8]: 19.30%
effect on cell viability [5]: no significant effect on cell viability

IC50 [1]: 11.9 ± 0.36 µM
SMILES: Cc1ccc2c(=O)n3c(c(-c4ccccc4)c2c1)C(=O)c1cc(F)ccc1-3 [Compound 20]
